According to publication PMC8909805, “Anticancer Activity of (S)-5-Chloro-3-((3,5-dimethylphenyl)sulfonyl)-N-(1-oxo-1-((pyridin-4-ylmethyl)amino)propan-2-yl)-1H-indole-2-carboxamide (RS4690), a New Dishevelled 1 Inhibitor” (Cancers, 2022):
Entries after “also recorded” stand apart in the source; their conditions may differ.

Legend:
[1] = test system: WNT/β-catenin pathway; assay: Inhibition of TCF/LEF (WRE-GFP reporter) activity in HEK293 cells expressing HA-FZD4; type: cell-based; conditions: Homo sapiens, HEK293, 48 h, 48 h treatment, read-out: EC50 ± SD WNT Pathway Inhibition
Description: Briefly, Hek293 cells were seeded on black 96-well Optiplates (PerkinElmer, Waltham, MA, USA) at a density of 5 × 10^3/well. After seeding for 16–24 h, cells were co-transfected with the cDNA coding for HA-FZD4 (0.04 µg/well) as well as with the reporter construct WRE-GFP (0.04 µg/well) using Lipofectamine. Hek293 cells were plated and treated with different dilutions of compounds 2, (S)-2 or (R)-1 for 48 h before being fixed and analyzed under a fluorescence microscope. Inhibition of WRE activity was measured by counting the percentage of GFP positive cells. Experiments were performed in triplicate and the standard deviations are indicated.
The activity of the compounds was further assayed in HEK293 cells transiently expressing both HA-FZD4 and the WNT reporter construct WRE-GFP (25). The latter presents the coding sequence of GFP under the control of an optimized WNT responsive element (WRE-wt). When WRE-GFP is transiently transfected in cells, it promotes GFP transcription and translation. The amount of GFP produced by each cell (and thus overall cell-fluorescence) depends on the intracellular levels of WNT pathway activity (Figure 5).

[2] = target: T1, DVL1 PDZ domain (Homo sapiens, UniProt O14640); assay: Equilibrium (FRET) competition binding between DVL1 PDZ domain and dansylated TMEM88 C-terminal peptide; conditions: compound at 5 µM
T1 sequence (O14640 251-323 limits assumed): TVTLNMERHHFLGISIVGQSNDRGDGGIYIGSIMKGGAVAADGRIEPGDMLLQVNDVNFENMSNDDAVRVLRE
Description: Equilibrium binding experiments were performed on a Fluoromax-4 single photon counting spectrofluorometer (Jobin-Yvon, NJ, USA). The buffer used was sodium phosphate 50 mM, DMSO 20% v/v, pH 7.2, and the temperature was set at 25 °C. […] Experiments were performed in the absence and in the presence of 1 µM and 5 µM constant concentration of (S)-2 or (R)-1 enantiomers. Normalized fluorescence collected at 540 nm was fitted using a hyperbolic function.

[3] = target: T2, NHERF1 PDZ1 domain (Homo sapiens, UniProt O14745); assay: Inhibition of the NHERF1 PDZ1 domain; type: binding; conditions: data not shown
T2 sequence (O14745 14-94 limits assumed): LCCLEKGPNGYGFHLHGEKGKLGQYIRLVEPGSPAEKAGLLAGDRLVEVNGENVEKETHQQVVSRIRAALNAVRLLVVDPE

[4] = test system: SW480 cells; assay: Cell growth inhibition, XTT assay, SW480; type: cell-based; conditions: Homo sapiens, incubation time 72 h
Description: Cell viability was evaluated by XTT [35] (SW480 and SW620 cells) or MTT [36] (HEK293 and HCT116 cells) colorimetric assays. Briefly, cells (range 10–30 × 10^3 cells/well) were seeded in 96-well microculture plates and then exposed to increasing concentrations of different compounds (range 0–300 µM) for 48 or 72 h. At the end of the treatment, media were removed and incubated at 37 °C in the dark for 4 h in phosphate-buffered saline (PBS) containing 0.2 mg/mL of sodium 3′-[1-[(phenylamino)-carbonyl]-3,4-tetrazolium]-bis(4-methoxy-6-nitro)benzene-sulfonic acid hydrate (XTT) (Thermo Fisher Scientific, Waltham, MA, USA) or (3-[4,5-dimethylthiazol-2-yl]-2,5 diphenyl tetrazolium bromide (MTT) (Merck, Kenilworth, NJ, USA) and phenazine methosulfate (PMS) at a final concentration of 25 µM. Absorbance at 450 nm and a reference wavelength of 650 nm was then measured using a microplate spectrophotometer (Multiskan FC Microplate Photometer, Thermo Scientific, Waltham, MA, USA). The cell growth inhibition rate was calculated utilizing the following formula: inhibition rate (%) = […], where Control OD is absorbance of negative control and Sample OD is absorbance of the test sample. The IC50 values were determined with GraphPad Prism 5 through constructed dose-response curves.
In vitro cultures of colon cancer cells often present mutations either in the APC gene or in the β-catenin gene. […] Two of these cell lines, colon cancer SW480 and SW620 cells, were used in dose-response experiments. […] We thus tested their growth inhibitory activity on the colon cancer cell line HCT116. In terms of APC and β-catenin, these represent the wt counterparts of SW480 and […]. HCT116 cells express wt APC and are heterozygous for β-catenin, harboring one wild type and one mutant (Ser45del) allele. WNT pathway activity and the survival of HCT116 cells thus depend on DVL and can be affected by FZD and DVL inhibitors. […]

[5] = test system: HCT116 cells; assay: ROS quantification with DCFDA probe in HCT116 cells; type: cell-based, human; conditions: 48 h treatment, increasing concentrations; % of DMSO control
Description: HCT116 cells were grown in RPMI-1640 medium (Corning) containing 2 mM L-glutamine and supplemented with 100 IU/mL penicillin/streptomycin and 10% fetal bovine serum (FBS; Sigma-Aldrich, St Louis, MO, USA). HCT116 cells were treated in 96-well-black plates for 48 h with increased concentrations of […]. Quantification of ROS production was measured using 20 μM of the fluorescent probe 2′,7′-dichlorodihydrofluorescein diacetate DCFDA (Sigma Aldrich). The relative fluorescence emission was followed at 520 nm using VICTOR plate reader (VICTOR™ Multilabel Counter, Perkin Elmer) and was normalized to total protein content using BCA test. Total ROS production was presented as percentage with respect to the control (DMSO treated cells) that was set as 100%. Statistical analysis was performed using one-way ANOVA followed by the Bonferroni post hoc comparison test. p < 0.05 was considered significant. Data are representative of three independent experiments with similar results.
Reactive oxygen species (ROS) play important roles in cell growth and differentiation, metabolism and apoptosis. […] We measured the ability of compounds (S)-1 and (R)-1 to generate ROS in HCT116 cells using the fluorescent probe 2′,7′-dichlorodihydrofluorescein diacetate DCFDA. The ROS production (%) upon 48 h treatment was determined with increasing concentrations of (S)-1 or (R)-1. […]

Structure (SMILES)	EC50 [1] [µM]	Effect on binding between DVL1 PDZ and TMEM88 peptide [2]	Inhibition of NHERF1 PDZ1 domain [3]	EC50 [4] [µM]	ROS production [5]
Cc1cc(C)cc(S(=O)(=O)c2c(C(=O)N[C@H](C)C(=O)NCc3ccncc3)[nH]c3ccc(Cl)cc23)c1 [(R)-1]	19.49 ± 0.06	abolished the binding	did not show inhibitory activity; also recorded: did not bind	59.5 ± 2.1	–
Cc1cc(C)cc(S(=O)(=O)c2c(C(=O)N[C@@H](C)C(=O)NCc3ccncc3)[nH]c3ccc(Cl)cc23)c1 [(S)-1, (S)-5-Chloro-3-((3,5-dimethylphenyl)sulfonyl)-N-(1-oxo-1-((pyridin-4-ylmethyl)amino)propan-2-yl)-1H-indole-2-carboxamide]	–	abolished the binding	did not show inhibitory activity; also recorded: did not bind	55 ± 2.2	high level of ROS production; also recorded: superior to (R)-1 at any tested compound concentration; also recorded: higher level of ROS production
Cc1cc(C)cc(S(=O)(=O)c2c(C(=O)NC(C)C(=O)NCc3ccncc3)[nH]c3ccc(Cl)cc23)c1 (stereo not shown) [Compound 1]	3.46 ± 0.07	–	–	39.2 ± 1.58	–
